Laboratory results as given in ChEMBL document CHEMBL5050844 (2019).

How the values were obtained:
[1] = biological target: T1, E3 ubiquitin-protein ligase CBL-B (Homo sapiens, UniProt Q13191); assay: Binding affinity towards N-terminal biotinylated Avi-tagged human CBL-B (36 to 427 residues) measured by surface plasmon resonance assay
[2] = biological target: T1, E3 ubiquitin-protein ligase CBL-B; assay: Inhibition of N-terminal Avi-tagged human CBL-B (36 to 427 residues) incubated with 30 nM Src kinase for 1.5 hrs followed by incubation with fluorescently labeled UbcH5B-Ub for 1 hr and measured by TR-FRET assay
[3] = Induction of anti-CD3 antibodies-stimulated human T cell activation at 8 uM assessed fold increase in IL-2 secretion measured by ELISA assay; format: functional, T cell line; also: reference of the scale not given here
[4] = Induction of anti-CD3 antibodies-stimulated human T cell activation at 1 uM assessed fold increase in IL-2 secretion measured by ELISA assay; format: functional, T cell line; also: reference of the scale not given here
[5] = Induction of anti-CD3 antibodies-stimulated human T cell activation at 8 uM assessed fold increase in CD25 expression measured by ELISA assay; format: functional, T cell line; also: reference of the scale not given here
[6] = Induction of anti-CD3/CD28 antibodies-stimulated human T cell activation at 1 uM assessed fold increase in CD25 expression measured by ELISA assay; format: functional, T cell line
[7] = biological target: T1, E3 ubiquitin-protein ligase CBL-B; assay: Inhibition of N-terminal Avi-tagged human CBL-B (36 to 427 residues) incubated with 60 nM Src kinase for 1.5 hrs followed by incubation with fluorescently labeled UbcH5B-Ub for 1 hr and measured by TR-FRET assay; format: single protein
[8] = Induction of anti-CD3 antibodies-stimulated human T cell activation at 1 uM assessed fold increase in CD25 expression measured by ELISA assay; format: functional, T cell line; also: reference of the scale not given here
[9] = Induction of anti-CD3/CD28 antibodies-stimulated human T cell activation at 0.3 uM assessed fold increase in IL-2 secretion measured by ELISA assay; format: functional, T cell line
[10] = Induction of anti-CD3/CD28 antibodies-stimulated human T cell activation at 1 uM assessed fold increase in IL-2 secretion measured by ELISA assay; format: functional, T cell line
[11] = Induction of anti-CD3/CD28 antibodies-stimulated human T cell activation at 4 uM assessed fold increase in IL-2 secretion measured by ELISA assay; format: functional, T cell line
[12] = Induction of anti-CD3/CD28 antibodies-stimulated human T cell activation at 0.3 uM assessed fold increase in CD25 expression measured by ELISA assay; format: functional, T cell line
[13] = Induction of anti-CD3/CD28 antibodies-stimulated human T cell activation at 4 uM assessed fold increase in CD25 expression measured by ELISA assay; format: functional, T cell line
[14] = Induction of anti-CD3 antibodies-stimulated human CD4+ T cell activation in immunocompetent mouse assessed fold increase in CD25 expression at 135 mg/kg, po administered twice a day; format: functional; also: reference of the scale not given here
[15] = Induction of anti-CD3 antibodies-stimulated human CD8+ T cell activation in immunocompetent mouse assessed fold increase in CD25 expression at 90 mg/kg, po administered twice a day; format: functional; also: reference of the scale not given here
[16] = Induction of anti-CD3 antibodies-stimulated human CD4+ T cell activation in immunocompetent mouse assessed fold increase in CD25 expression at 90 mg/kg, po administered twice a day; format: functional; also: reference of the scale not given here
[17] = Induction of anti-CD3 antibodies-stimulated human CD4+ T cell activation in immunocompetent mouse assessed fold increase in CD25 expression at 180 mg/kg, po administered twice a day; format: functional; also: reference of the scale not given here
[18] = Induction of anti-CD3 antibodies-stimulated human CD8+ T cell activation in immunocompetent mouse assessed fold increase in CD25 expression at 180 mg/kg, po administered twice a day; format: functional; also: reference of the scale not given here
[19] = Induction of anti-CD3 antibodies-stimulated human CD8+ T cell activation in immunocompetent mouse assessed fold increase in CD25 expression at 90 mg/kg, ip administered thrice a day; format: functional; also: reference of the scale not given here
[20] = Induction of anti-CD3 antibodies-stimulated human CD8+ T cell activation in immunocompetent mouse assessed fold increase in CD25 expression at 135 mg/kg, po administered twice a day; format: functional; also: reference of the scale not given here

T1 sequence (Q13191 whole entry, the tested form may be a part): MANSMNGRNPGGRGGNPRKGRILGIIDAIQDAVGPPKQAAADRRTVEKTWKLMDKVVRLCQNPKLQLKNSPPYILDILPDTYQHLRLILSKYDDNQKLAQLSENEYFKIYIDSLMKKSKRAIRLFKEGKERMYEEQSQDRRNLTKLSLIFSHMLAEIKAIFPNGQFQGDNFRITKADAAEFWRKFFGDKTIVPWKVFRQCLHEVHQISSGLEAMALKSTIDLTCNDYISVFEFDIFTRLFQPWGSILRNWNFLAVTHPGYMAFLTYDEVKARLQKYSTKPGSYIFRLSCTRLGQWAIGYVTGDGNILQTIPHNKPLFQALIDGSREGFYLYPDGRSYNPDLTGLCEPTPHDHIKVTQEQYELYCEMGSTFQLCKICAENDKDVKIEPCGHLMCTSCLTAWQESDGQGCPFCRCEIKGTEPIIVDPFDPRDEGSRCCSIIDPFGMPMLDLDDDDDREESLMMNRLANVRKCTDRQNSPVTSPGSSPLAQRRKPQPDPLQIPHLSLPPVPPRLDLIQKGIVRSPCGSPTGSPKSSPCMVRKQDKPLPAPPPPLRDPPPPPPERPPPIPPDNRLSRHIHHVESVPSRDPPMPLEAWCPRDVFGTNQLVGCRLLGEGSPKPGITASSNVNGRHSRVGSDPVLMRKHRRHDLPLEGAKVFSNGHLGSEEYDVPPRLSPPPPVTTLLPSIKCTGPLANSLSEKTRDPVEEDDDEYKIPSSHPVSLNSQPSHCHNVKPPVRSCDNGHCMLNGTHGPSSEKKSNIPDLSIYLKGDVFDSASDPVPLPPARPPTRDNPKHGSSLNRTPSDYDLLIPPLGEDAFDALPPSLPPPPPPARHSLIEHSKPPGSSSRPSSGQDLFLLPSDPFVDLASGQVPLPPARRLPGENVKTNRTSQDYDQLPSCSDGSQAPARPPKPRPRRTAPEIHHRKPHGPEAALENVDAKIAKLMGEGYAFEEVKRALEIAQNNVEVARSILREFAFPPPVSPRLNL

In the case of `C[C@H](Sc1nncn1C)c1ccnc(N)c1`, the Kd [1] is reported as greater than 10 µM and the IC50 [2] is reported as no less than 3 µM.
In the case of `COc1ccccc1C(=O)Nc1cccc(C(C)Sc2nncn2C)c1` (stereo not drawn), the Kd [1] is reported as greater than 10 µM and the IC50 [2] is reported as greater than 10 µM.
`CC(Sc1nncn1C)c1cccc(NC(=O)c2ccc3cnccc3c2)c1` (stereo not drawn) showed an IC50 [2] greater than 10 µM.
With `CC(Sc1nncn1C)c1cccc(NC(=O)c2ccc3ccncc3c2)c1` (stereo not drawn) the Kd [1] was greater than 10 µM and the IC50 [2] was greater than 10 µM.
Compound `CC(Sc1nncn1C)c1cccc(NC(=O)c2ccncn2)c1` (stereo not drawn) has an IC50 [2] greater than 10 µM.
Work on `CC(Sc1nncn1C)c1cccc(NC(=O)c2ccc3cccnc3c2)c1` (stereo not drawn) yielded an IC50 [2] greater than 10 µM.
Compound `CC(Sc1nncn1C)c1cccc(NC(=O)c2cc3ccccc3c(=O)[nH]2)c1` (stereo not drawn) has an IC50 [2] greater than 10 µM.
Compound `COc1ccc(C(=O)Nc2cccc(C(C)Sc3nncn3C)c2)cc1` (stereo not drawn) has a Kd [1] greater than 10 µM and an IC50 [2] greater than 10 µM.
For `C[C@H](Sc1nncn1C)c1cccc(NC(=O)c2ccc3ccccc3n2)c1`, the “fold change (FC)” value [3] was 0.051, the “fold change (FC)” value [4] was “<=0.05” and the “fold change (FC)” value [5] was 0.601. The “fold change (FC)” value [6] was 1.01, the Kd [1] was no less than 1 µM and the IC50 [7] was no more than 1 µM. The IC50 [2] was no more than 1 µM, the “fold change (FC)” value [8] was 0.601 and the “fold change (FC)” value [9] was 1.01. The “fold change (FC)” value [10] was 1.01, the “fold change (FC)” value [11] was 1.01 and the “fold change (FC)” value [12] was 1.01. The “fold change (FC)” value [13] was 1.01.
In the case of `Cn1cnnc1[C@H](F)C1(c2cccc(N3Cc4c(cc(CN5CCC(F)CC5)cc4C(F)(F)F)C3=O)c2)COC1`, the “fold change (FC)” value [4] is reported as “>=0.201”, the “fold change (FC)” value [14] is reported as 1.51 and the “fold change (FC)” value [6] is reported as “>=1.76”. The “fold change (FC)” value [15] was 1, the Kd [1] was less than 0.1 µM and the IC50 [7] was less than 0.1 µM. For the same compound, the “fold change (FC)” value [8] was “>=1.001”, the “fold change (FC)” value [9] was “>=7.5” and the “fold change (FC)” value [10] was “>=7.5”. For the same compound, the “fold change (FC)” value [12] was “>=1.76”.
`CC(Sc1nncn1C)c1cccc(NC(=O)c2cnc3ccccc3c2)c1` (stereo not drawn) gave an IC50 [2] of no less than 3 µM.
`Cc1ccc2ccc(C(=O)Nc3cccc(C(C)Sc4nncn4C)c3)nc2n1` (stereo not drawn) gave an IC50 [2] greater than 10 µM.
In the case of `C[C@@H](c1cc2c(c(C(F)(F)F)c1)CN(c1cccc(C3(Cc4nncn4C)COC3)c1)C2=O)N1CCC(C)(F)CC1`, the “fold change (FC)” value [4] is reported as “>=0.201”, the “fold change (FC)” value [14] is reported as 1 and the “fold change (FC)” value [6] is reported as “>=1.76”. The “fold change (FC)” value [15] was 1, the Kd [1] was less than 0.1 µM and the IC50 [7] was less than 0.1 µM. The “fold change (FC)” value [8] was “>=1.001”, the “fold change (FC)” value [9] was “>=7.5” and the “fold change (FC)” value [10] was “>=7.5”. For the same compound, the “fold change (FC)” value [12] was “>=1.76”.
With `Cn1cnnc1[C@@H](F)C1(c2cccc(N3Cc4c(cc(CN5CCC(F)CC5)cc4C(F)(F)F)C3=O)c2)COC1` the “fold change (FC)” value [4] was “>=0.201”, the “fold change (FC)” value [14] was 2.01 and the “fold change (FC)” value [6] was 1.51. The “fold change (FC)” value [15] was 1, the Kd [1] was less than 0.1 µM and the IC50 [7] was less than 0.1 µM. For the same compound, the “fold change (FC)” value [8] was “>=1.001”, the “fold change (FC)” value [9] was 5 and the “fold change (FC)” value [10] was “>=7.5”. For the same compound, the “fold change (FC)” value [12] was 1.51.
In the case of `Cn1cnnc1CC1(c2cccc(N3Cc4c(cc(CN5CCC(C)(F)CC5)cc4C(F)(F)F)C3=O)c2)COC1`, the “fold change (FC)” value [4] is reported as “>=0.201”, the “fold change (FC)” value [14] is reported as 1 and the “fold change (FC)” value [6] is reported as 1.31. The “fold change (FC)” value [15] was 1, the “fold change (FC)” value [16] was 1 and the “fold change (FC)” value [17] was 1. For the same compound, the Kd [1] was less than 0.1 µM, the “fold change (FC)” value [18] was less than 1 and the “fold change (FC)” value [19] was 1. For the same compound, the IC50 [7] was less than 0.1 µM, the “fold change (FC)” value [8] was “>=1.001” and the “fold change (FC)” value [9] was “>=7.5”. The “fold change (FC)” value [10] was “>=7.5”, the “fold change (FC)” value [12] was 1.31 and the “fold change (FC)” value [20] was less than 1.
For `CC(Sc1nncn1C)c1cccc(NC(=O)c2ccc3ccccc3n2)c1` (stereo not drawn), the “fold change (FC)” value [3] was 0.051, the “fold change (FC)” value [4] was “<=0.05” and the “fold change (FC)” value [5] was 0.601. The “fold change (FC)” value [6] was “<=1”, the Kd [1] was no less than 1 µM and the IC50 [7] was no more than 1 µM. The Kd [2] was no less than 1 µM, the “fold change (FC)” value [8] was “<=0.6” and the “fold change (FC)” value [9] was 1.01. The “fold change (FC)” value [10] was 1.01, the “fold change (FC)” value [11] was 2.51 and the “fold change (FC)” value [12] was “<=1”. The “fold change (FC)” value [13] was 1.01.
Compound `Cc1nc2cc(C(C)Sc3nncn3C)cc(N)c2o1` (stereo not drawn) has a Kd [1] of no less than 3 µM and an IC50 [2] of no less than 3 µM.
`CC(Sc1nncn1C)c1cc(CO)cc(NC(=O)c2ccc3ccccc3n2)c1` (stereo not drawn) gave an IC50 [2] greater than 10 µM.
Work on `CC(Sc1nncn1C)c1cccc(NC(=O)c2ccccn2)c1` (stereo not drawn) yielded a Kd [1] greater than 10 µM and an IC50 [2] of no less than 3 µM.
With `C[C@@H](Cc1nncn1C)c1cccc(N2Cc3c(cccc3C(F)(F)F)C2=O)c1` the “fold change (FC)” value [14] was less than 1, the “fold change (FC)” value [15] was less than 1 and the “fold change (FC)” value [17] was less than 1. The “fold change (FC)” value [18] was less than 1 and the “fold change (FC)” value [20] was less than 1.
With `COc1cccc(C(=O)Nc2cccc(C(C)Sc3nncn3C)c2)c1` (stereo not drawn) the Kd [1] was greater than 10 µM and the IC50 [2] was greater than 10 µM.
`CC(Sc1nncn1C)c1cccc(NC(=O)c2ccc3ncccc3c2)c1` (stereo not drawn) gave a Kd [1] greater than 10 µM and an IC50 [2] greater than 10 µM.
With `Cc1ccc2cc(C(=O)Nc3cccc(C(C)Sc4nncn4C)c3)cnc2c1` (stereo not drawn) the IC50 [2] was greater than 10 µM.
In the case of `Cn1cnnc1CC1(c2cccc(N3Cc4c(cc(CN5CC[C@H](F)C5)cc4C(F)(F)F)C3=O)c2)COC1`, the “fold change (FC)” value [3] is reported as “>=0.201”, the “fold change (FC)” value [4] is reported as “>=0.201” and the “fold change (FC)” value [14] is reported as 1. For the same compound, the “fold change (FC)” value [5] was “>=1.001”, the “fold change (FC)” value [6] was 1.51 and the “fold change (FC)” value [15] was 1. The “fold change (FC)” value [16] was 1, the “fold change (FC)” value [17] was 1 and the “fold change (FC)” value [18] was 1. For the same compound, the “fold change (FC)” value [19] was 1, the IC50 [7] was less than 0.1 µM and the “fold change (FC)” value [8] was “>=1.001”. For the same compound, the “fold change (FC)” value [9] was 5, the “fold change (FC)” value [10] was “>=7.5” and the “fold change (FC)” value [11] was “>=7.5”. For the same compound, the “fold change (FC)” value [12] was 1.31, the “fold change (FC)” value [13] was 1.51 and the “fold change (FC)” value [20] was 1.
